Source: US7737155B2, “Nitrogen-containing heterocyclic compounds and methods of use thereof” (Schering Corporation, priority 2005, dated 2010)
pEC50: −log10 of the molar value.

Molecular target: recombinant human nicotinic acid receptor (NAR) (Homo sapiens, UniProt Q8TDS4)
Assay: Nicotinic Acid Receptor Assay: inhibition of forskolin-stimulated cAMP accumulation in CHO cells (MesoScale Discovery cAMP kit)
Format: cell-based
Conditions: CHO cells expressing recombinant human NAR; forskolin-stimulated cAMP; read-out: NA EC50 camp
In short: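 Compounds were diluted in PBS containing 6 μM forskolin and incubated with cells for 30 min at room temperature. cAMP was quantified by the MesoScale kit against an on-plate standard curve.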

Sequence of recombinant human nicotinic acid receptor (NAR) (Q8TDS4 whole entry): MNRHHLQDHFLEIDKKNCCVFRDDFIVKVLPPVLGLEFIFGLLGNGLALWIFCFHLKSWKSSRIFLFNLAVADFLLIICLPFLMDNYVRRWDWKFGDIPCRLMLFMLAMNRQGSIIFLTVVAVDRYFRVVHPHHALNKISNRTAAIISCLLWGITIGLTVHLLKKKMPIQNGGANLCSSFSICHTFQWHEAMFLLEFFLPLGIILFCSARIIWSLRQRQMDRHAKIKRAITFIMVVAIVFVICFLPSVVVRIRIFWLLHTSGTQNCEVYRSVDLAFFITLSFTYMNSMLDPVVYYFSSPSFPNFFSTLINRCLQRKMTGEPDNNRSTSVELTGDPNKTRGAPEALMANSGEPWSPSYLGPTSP

SMILES	pEC50
CCCCc1c(-c2ccc(Cl)cc2)c(=O)oc2[nH]c(=O)[nH]c(=O)c12 [Compound 705]	< 6.00
O=c1[nH]c(=O)c2c(CCCC3CCC3)cc(=O)oc2[nH]1 [Compound 286]	7.00 to 12.00
CCc1cc(=O)oc2nc(OCc3c(C)noc3-c3ccccc3)[nH]c(=O)c12 [Compound 531]	6.00 to 7.00
O=c1[nH]c(=O)c2c(CC3CCC4CC34)cc(=O)oc2[nH]1 (stereo not shown) [Compound 235]	7.00 to 12.00
CCc1cc(=O)oc2nc(OCC#Cc3ccccc3Cl)[nH]c(=O)c12 [Compound 623]	7.00 to 12.00
CC(=O)Nc1ccc(-c2c(CCC3CCC3)c3c(=O)[nH]c(=O)[nH]c3oc2=O)cc1 [Compound 704]	< 6.00
CCc1cc(=O)oc2nc(OCc3ccc(C(F)(F)F)cc3C(F)(F)F)[nH]c(=O)c12 [Compound 514]	< 6.00
CCc1cc(=O)oc2nc(OCC3=Cc4ccccc4S3(=O)=O)[nH]c(=O)c12 [Compound 604]	6.00 to 7.00
CCc1cc(=O)oc2nc(OCCSc3ccc(Cl)cc3)[nH]c(=O)c12 [Compound 587]	< 6.00
CCc1noc(C)c1COc1nc2oc(=O)cc(Cc3cccc(F)c3)c2c(=O)[nH]1 [Compound 685]	6.00 to 7.00
O=c1[nH]c(=O)c2c(CCCc3cc(-c4cccc(C(F)(F)F)c4)no3)cc(=O)oc2[nH]1 [Compound 249]	6.00 to 7.00
O=c1[nH]c(=O)c2c(C3CCCCC3)cc(=O)oc2[nH]1 [Compound 212]	6.00 to 7.00
CCc1cc(=O)oc2nc(OCC#CC(C)OC)[nH]c(=O)c12 (stereo not shown) [Compound 672]	6.00 to 7.00
CCc1cc(=O)oc2nc(OCCSc3ccccn3)[nH]c(=O)c12 [Compound 655]	6.00 to 7.00
CCc1cc(=O)oc2nc(OCCOc3c(OC)cccc3OC)[nH]c(=O)c12 [Compound 622]	6.00 to 7.00
CCc1cc(=O)oc2nc(OCc3cccc(-c4ccc(F)cc4)c3)[nH]c(=O)c12 [Compound 566]	< 6.00
CCc1cc(=O)oc2nc(OCc3cc(C)nn3C)[nH]c(=O)c12 [Compound 529]	6.00 to 7.00
CCc1cc(=O)oc2nc(OCc3cc(C)ccc3C)[nH]c(=O)c12 [Compound 539]	6.00 to 7.00
O=c1cc(CCCCC2CC2)c2c(=O)n(C3CCC3)c(=O)[nH]c2o1 [Compound 200]	6.00 to 7.00
O=c1cc(CCCCc2cccs2)c2c(=O)n(C3CCC3)c(=O)[nH]c2o1 [Compound 280]	< 6.00
CCc1cc(=O)oc2nc(O[C@@H](C)c3ccc4ccccc4c3)[nH]c(=O)c12 [Compound 501]	7.00 to 12.00
CCc1cc(=O)oc2nc(OCc3cc(Br)no3)[nH]c(=O)c12 [Compound 649]	6.00 to 7.00
O=c1[nH]c(=O)c2c3c(c(=O)oc2[nH]1)CCCCCC3 [Compound 211]	< 6.00

SMILES	pEC50
N#Cc1cccc(Cc2cc(=O)oc3[nH]c(=O)[nH]c(=O)c23)c1 [Compound 231]	< 6.00
CCc1cc(=O)oc2nc(OCc3cccc(N(C)C)c3)[nH]c(=O)c12 [Compound 619]	6.00 to 7.00
COC(C)(C)CCc1cc(=O)oc2[nH]c(=O)[nH]c(=O)c12 [Compound 279]	< 6.00
CCc1noc(C)c1COc1nc2oc(=O)cc(CC)c2c(=O)[nH]1 [Compound 666]	7.00 to 12.00
CCc1cc(=O)oc2nc(OCc3ccc(-c4cccc(OC)c4)cc3F)[nH]c(=O)c12 [Compound 572]	6.00 to 7.00
CCc1cc(=O)oc2nc(OCCOCc3csc4ccccc34)[nH]c(=O)c12 [Compound 662]	7.00 to 12.00
CCc1cc(=O)oc2nc(OC[C@H](O)c3ccccc3)[nH]c(=O)c12 [Compound 633]	6.00 to 7.00
CCc1cc(=O)oc2nc(OCc3cc(C)c(OC)c(C)n3)[nH]c(=O)c12 [Compound 511]	< 6.00
COC(=O)CCc1cc(=O)oc2[nH]c(=O)[nH]c(=O)c12 [Compound 216]	6.00 to 7.00
COc1ccc(-c2cc(CCCc3cc(=O)oc4[nH]c(=O)[nH]c(=O)c34)on2)cc1 [Compound 261]	6.00 to 7.00
CCc1cc(=O)oc2nc(OCC(=O)N(CC)CC)[nH]c(=O)c12 [Compound 621]	6.00 to 7.00
CCc1cc(=O)oc2nc(OCc3ccccc3C#N)[nH]c(=O)c12 [Compound 611]	< 6.00
N#CC1(CCCc2cc(=O)oc3[nH]c(=O)[nH]c(=O)c23)CC1 [Compound 294]	6.00 to 7.00
O=c1[nH]c(=O)c2c(CCC3CCC3)c(-c3ccc(C(F)(F)F)cc3)c(=O)oc2[nH]1 [Compound 701]	< 6.00
CCc1cc(=O)oc2nc(OCc3ccccc3-c3cccc(C(=O)N(C)C)c3)[nH]c(=O)c12 [Compound 552]	6.00 to 7.00
O=c1cc(Cc2ccccc2)c2c(=O)[nH]c(OCc3ccccc3F)nc2o1 [Compound 616]	6.00 to 7.00
CN(C)CCOc1nc2oc(=O)cc(Cc3cccc(F)c3)c2c(=O)[nH]1 [Compound 683]	< 6.00
CCc1cc(=O)oc2nc(OCc3ccc(-c4ccncc4)cc3F)[nH]c(=O)c12 [Compound 574]	6.00 to 7.00
CCc1cc(=O)oc2nc(OCc3ccccc3-c3ccc(CO[Si](C)(C)C(C)(C)C)cc3)[nH]c(=O)c12 [Compound 651]	6.00 to 7.00
CCc1cc(=O)oc2nc(OCc3cc(-c4ccccc4)oc3C)[nH]c(=O)c12 [Compound 542]	< 6.00
CC(C)(C)CCc1cc(=O)oc2[nH]c(=O)[nH]c(=O)c12 [Compound 263]	< 6.00
CCc1cc(=O)oc2nc(OCCc3cccc4ccccc34)[nH]c(=O)c12 [Compound 537]	< 6.00
CCc1cc(=O)oc2nc(OCc3cc(C)nn3C(C)(C)C)[nH]c(=O)c12 [Compound 673]	6.00 to 7.00

Same assay, conditions: NA EC50 camp (nM), CHO cells expressing recombinant human NAR; forskolin-stimulated cAMP

SMILES	EC50
CCc1cc(=O)oc2nc(OCC#CCCO)[nH]c(=O)c12 [Compound 658]	100 to 1000 nM
CCc1cc(=O)oc2nc(OCC#CC3CCCCC3)[nH]c(=O)c12 [Compound 638]	100 to 1000 nM
C#CCOc1nc2oc(=O)cc(CC)c2c(=O)[nH]1 [Compound 555]	100 to 1000 nM
CCOCCOc1nc2oc(=O)cc(CC)c2c(=O)[nH]1 [Compound 580]	> 1000 nM
CCc1cc(=O)oc2nc(OCC#CCO)[nH]c(=O)c12 [Compound 631]	100 to 1000 nM

Same assay, conditions: NA EC50 camp, inhibition of forskolin-stimulated cAMP accumulation, CHO cells expressing recombinant human NAR

SMILES	pEC50
CCc1cc(=O)oc2nc[nH]c(=O)c12 [Compound 807]	< 5.00
CC1(CCCc2cc(=O)oc3nc(C(F)F)[nH]c(=O)c23)CC1 [Compound 811]	7.66

Same assay, conditions: inhibition of forskolin-stimulated cAMP accumulation, CHO cells expressing recombinant human NAR; read-out: NA EC50 camp

SMILES	pEC50
CCCc1cc(=O)oc2[nH]c(=O)n(CF)c(=O)c12 [Compound 817]	5.84
CCc1cc(=O)oc2nc(OCc3ccccc3F)[nH]c(=O)c12 [Compound 74]	6.74
CCCCCCc1cc(=O)oc2[nH]c(=O)nc(OCF)c12 [Compound 833]	6.29
CCn1c(=O)[nH]c2oc(=O)cc(CCC3CCC3)c2c1=O [Compound 783]	7.19
CCCCCc1cc(=O)oc2nc(CF)[nH]c(=O)c12 [Compound 744]	6.89
O=c1cc(CCC2CCC2)c2c(=O)[nH]c(CF)nc2o1 [Compound 749]	6.74
O=c1[nH]c(=O)c2c(CCC3CCCCC3)cc(=O)oc2[nH]1 [Compound 124]	7.11
CCCCc1cc(=O)oc2nc(O[C@H]3C[C@H](COCc4ccccc4)C3)[nH]c(=O)c12 [Compound 791]	7.30
O=c1cc(CCCC2CC2)c2c(=O)[nH]c(CF)nc2o1 [Compound 741]	6.91
O=c1cc(CCCC2CC2)c2c(=O)n(C(F)F)c(=O)[nH]c2o1 [Compound 814]	6.79
O=c1[nH]c(=O)c2c(CC3CCCCC3)cc(=O)oc2[nH]1 [Compound 103]	7.13
